Data published in patent US6339077B1, “Substituted 4-benzylaminoquinolines and their hetero analogs, process for their preparation, pharmaceuticals containing these compounds and use thereof” (Aventis Pharma Deutschland GmbH, priority 1999, dated 2002).

Target: T1, human NHE-3 protein (expressed in the LAP1 cell line) (Homo sapiens, UniProt P48764)
T1 construct: expressed in transfected cells; host or cells: LAP1 cell line
T1 sequence (P48764 26-834): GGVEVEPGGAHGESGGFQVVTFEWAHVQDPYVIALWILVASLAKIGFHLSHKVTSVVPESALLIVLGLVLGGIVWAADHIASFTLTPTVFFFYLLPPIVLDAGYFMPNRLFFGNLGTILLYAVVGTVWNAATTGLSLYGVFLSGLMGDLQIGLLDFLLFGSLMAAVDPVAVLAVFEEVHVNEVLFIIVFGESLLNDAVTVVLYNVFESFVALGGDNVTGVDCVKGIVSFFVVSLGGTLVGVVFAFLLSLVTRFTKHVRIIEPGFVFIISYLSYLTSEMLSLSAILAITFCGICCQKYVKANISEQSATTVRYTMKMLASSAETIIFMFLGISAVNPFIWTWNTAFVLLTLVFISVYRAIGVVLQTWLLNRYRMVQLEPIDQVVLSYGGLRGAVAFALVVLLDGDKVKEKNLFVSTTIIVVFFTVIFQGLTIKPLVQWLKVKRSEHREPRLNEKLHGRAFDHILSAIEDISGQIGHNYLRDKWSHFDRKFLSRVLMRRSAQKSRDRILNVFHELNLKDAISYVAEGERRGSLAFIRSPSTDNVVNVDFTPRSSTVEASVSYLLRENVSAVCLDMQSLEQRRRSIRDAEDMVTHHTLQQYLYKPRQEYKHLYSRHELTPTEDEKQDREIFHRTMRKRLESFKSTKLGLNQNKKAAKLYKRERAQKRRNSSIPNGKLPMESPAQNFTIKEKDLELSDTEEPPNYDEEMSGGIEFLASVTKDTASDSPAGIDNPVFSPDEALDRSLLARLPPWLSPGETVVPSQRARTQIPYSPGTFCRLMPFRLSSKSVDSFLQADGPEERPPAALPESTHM
Experiment: Inhibition of sodium/proton exchanger subtype 3: recovery of intracellular pH after acidification (BCECF fluorescence)
Assay type: cell-based
Conditions: at 30 μM, pHi recovery as percentage of the maximum recovery
Method: Biological testing of the novel compounds was accomplished by measuring inhibition of the sodium/proton exchanger subtype 3.
The remaining activity of the human NHE-3 protein (expressed in the LAP1 cell line) was determined by measuring the recovery in the intracellular pH (pHi) after an acidification, which starts when the NHE is capable of functioning, even under bicarbonate-free conditions. For this purpose, the pHi was determined using the pH-sensitive fluorescent dye BCECF (Calbiochem, the precursor BCECF-AM is employed). The cells were initially loaded with BCECF. […] The intracellular acidification was induced by addition of 975 μl of an NH4Cl-free buffer (see below) to 25 μl aliquots of the cells incubated in NH4Cl buffer. The subsequent rate of pH recovery was recorded for 3 minutes. To calculate the inhibitory power of the substances tested, the cells were initially investigated in buffers in which complete or absolutely no pH recovery took place. […] Test solutions of the substances of interest were made up in the Na^+-containing buffer. Recovery of the intracellular pH at the tested concentration of a substance was expressed as a percentage of the maximum recovery.

Question: Which “remaining activity of hNHE3” value does the source give for CC(=O)c1c(C)nc2ccccc2c1NCc1ccc(CCC2(O)CCC3(C)C(CC(O)C4C3CC(O)C3(C)C(C(C)CCC(=O)O)CCC43)C2)cc1 (stereo not drawn) [Example 2, 2-Methyl-3-acetyl-4-{4-[1-(3α,7α, 12α-trihydroxy-10β,13β-dimethyl-17β-(3-carboxy-1-methylpropyl)hexadecahydrocyclopenta[a]phenanthren-3-yl)eth-2-yl]benzylamino}quinoline] here?
Answer: 33%

Question: Which “remaining activity of hNHE3” value does the source give for CC(=O)c1c(C)nc2ccccc2c1NCc1ccccc1CCC1(O)CCC2(C)C(CC(O)C3C2CC(O)C2(C)C(C(C)CCC(=O)O)CCC32)C1 (stereo not drawn) [Example 18, 2-Methyl-3-acetyl-4-{2-[1-(3α,7α,12α-trihydroxy-10β,13β-dimethyl-17β(3-carboxy-1-methylpropyl)hexadecahydrocyclopenta[a]phenanthren-3-yl)eth-2-yl]benzylamino}quinoline] here?
Answer: 36%

Same assay, conditions: pHi recovery as percentage of the maximum recovery, read-out: remaining activity of hNHE3

Question: Which remaining activity at 30 µM does the source give for CC(=O)c1c(C)nc2ccccc2c1NCc1ccc(C#CC2(O)CCC3(C)C(CC(O)C4C3CC(O)C3(C)C4CC[C@@H]3C(C)CCC(=O)O)C2)cc1 (stereo partly drawn) [Example 1, 2-Methyl-3-acetyl-4-{4-[1-(3α,7α, 12α-trihydroxy-10β, 13β-dimethyl-17β-(carboxy-1-methylpropyl)hexadecahydrocyclopenta[a]phenanthren-3-yl)ethyn-2-yl]-benzylamino}quinoline] here?
Answer: 26%

Question: Which remaining activity at 30 µM does the source give for COC(=O)CC[C@@H](C)[C@H]1CCC2C3C(C[C@H](O)[C@@]21C)[C@@]1(C)CC[C@H](OCCNC(=O)c2c(C)nc4ccccc4c2NCc2ccccc2)CC1C[C@H]3O (stereo partly drawn) [Example 3, 2-Methyl-4-aminobenzyl-N-{2-[7α, 12α-dihydroxy-10β,13β-dimethyl-17β-(3-methoxycarbonyl-1-methylpropyl)hexadecahydrocyclopenta[a]phen-anthren-3β-yloxy]ethyl}quinoline-3-carboxamide] here?
Answer: 22%

Question: With COC(=O)c1c(C)nc2ccccc2c1NCc1ccc(C#CC2(O)CCC3(C)C(CC(O)C4C3CC(O)C3(C)C4CC[C@@H]3C(C)CCC(=O)O)C2)cc1 (stereo partly drawn) [Example 6, Methyl 2-methyl-4-{4-[1-(3α,7α,12α-trihydroxy-10β, 13β-dimethyl-17β-(3carboxy-1-methylpropyl)hexadecahydrocyclopenta[a]phenanthren-3-yl)ethyn-2-yl]benzylamino}quinoline-3-carboxylate] as the compound, how does the remaining activity at 30 µM read?
Answer: 39%

Question: With CC(=O)c1c(C)nc2ccccc2c1NCc1cccc(CC[C@@]2(O)CC[C@@]3(C)C(C[C@@H](O)C4C3C[C@H](O)[C@@]3(C)C4CC[C@@H]3[C@H](C)CCC(=O)NCC(=O)O)C2)c1 (stereo partly drawn) [Example 15, 2-Methyl-3-acetyl-4-{3-[1-(3α,7α,12α-trihydroxy-10β,13β-dimethyl-17β-(3-carboxymethylcarbamoyl-1-methylpropyl)hexadecahydrocyclopenta[a]phenanthren-3-yl)eth-2-yl]benzylamino}quinoline] as the compound, how does the remaining activity at 30 µM read?
Answer: 65%

Question: For CC(=O)c1c(C)nc2ccccc2c1NCc1cccc(CC[C@@]2(O)CC[C@@]3(C)C(C[C@@H](O)C4C3C[C@H](O)[C@@]3(C)C4CC[C@@H]3[C@H](C)CCC(=O)NCCS(=O)(=O)O)C2)c1 (stereo partly drawn) [Example 16, 2-Methyl-3-acetyl-4-{3-[1-(3α,7α,12α-trihydroxy-10β,13β-dimethyl-17β(3-(2-sulfoethylcarbamoyl)-1-methylpropyl)hexadecahydrocyclopenta[a]phenanthren-3-yl)eth-2-yl]benzylamino}quinoline], which remaining activity at 30 µM is on record?
Answer: 27%

Question: For CC(=O)c1c(C)nc2ccccc2c1NCc1ccccc1C#CC1(O)CC[C@@]2(C)C(CC(O)C3C2CC(O)[C@@]2(C)C3CC[C@@H]2[C@H](C)CCC(=O)O)C1 (stereo partly drawn) [Example 17, 2-Methyl-3-acetyl-4-{2-[1-(3α,7α,12α-trihydroxy-10β,13β-dimethyl-17β-(3-carboxy-1-methylpropyl)hexadecahydrocyclopenta[a]phenanthren-3-yl)ethyn-2-yl]benzylamino}quinoline], which remaining activity at 30 µM is on record?
Answer: 36%

Question: For CC(=O)c1c(C)nc2ccccc2c1NCc1ccc(C#CC2(O)CCC3(C)C(CC(O)C4C3CC(O)C3(C)C4CC[C@@H]3C(C)CCC(=O)O)C2)c(F)c1 (stereo partly drawn) [Example 23, 2-Methyl-3-acetyl-4-{4-[1-(3α,7α,12α-trihydroxy-10β,13β-dimethyl-17β-(3-carboxy-1-methylpropyl)hexadecahydrocyclopenta[a]phenanthren-3-yl)ethyn-2-yl]-3-fluorobenzylamino}quinoline], which remaining activity at 30 µM is on record?
Answer: 16%

Question: Which remaining activity at 30 µM does the source give for CC(=O)c1c(C)nc2ccccc2c1NCc1ccc(CCC2(O)CCC3(C)C(CC(O)C4C3CC(O)C3(C)C4CC[C@@H]3C(C)CCC(=O)O)C2)c(F)c1 (stereo partly drawn) [Example 24, 2-Methyl-3-acetyl-4-{4-[1-(3α,7α,12α-trihydroxy-10β,13β-dimehtyl-17β-(3-carboxy-1-methylpropyl)hexadecahydrocyclopenta[a]phenanthren-3-yl)eth-2-yl]-3-fluorobenzylamino}quinoline] here?
Answer: 29%

Question: For CC(=O)c1c(C)nc2ccccc2c1NCc1ccc(C#CC2(O)CCC3(C)C(CC(O)C4C3CC(O)C3(C)C4CC[C@@H]3C(C)CCC(=O)O)C2)c(Cl)c1 (stereo partly drawn) [Example 25, 2-Methyl-3-acetyl-4-{4-[1-(3α,7α,12α-trihydroxy-10β,13β-dimethyl-17β-(3-carboxy-1-methylpropyl)hexadecahydrocyclopenta[a]phenanthren-3-yl)ethyn-2-yl]-3-chlorobenzylamino}quinoline], which remaining activity at 30 µM is on record?
Answer: 18%

Question: With CC(=O)c1c(C)nc2ccccc2c1NCc1ccc(C#CC2(O)CCC3(C)C(CC(O)C4C3CC(O)C3(C)C4CC[C@@H]3C(C)CCC(=O)O)C2)cc1F (stereo partly drawn) [Example 26] as the compound, how does the remaining activity at 30 µM read?
Answer: 52%

Question: With CC(=O)c1c(C)nc2ccccc2c1NCc1ccc(CCC2(O)CCC3(C)C(CC(O)C4C3CC(O)C3(C)C4CC[C@@H]3C(C)CCC(=O)O)C2)cc1F (stereo partly drawn) [Example 27, 2-Methyl-3-acetyl-4-{4-[1-(3α,7α,12α-trihydroxy-10β,13β-dimethyl-17β-(3-carboxy-1-methylpropyl)hexadecahydrocyclopenta[a]phenanthren-3-yl)eth-2-yl]-2-fluorobenzylamino}quinoline] as the compound, how does the remaining activity at 30 µM read?
Answer: 54%

Question: Which remaining activity at 30 µM does the source give for CC(=O)c1c(C)nc2ccccc2c1NCc1ccc(C#CC2(O)CCC3(C)C(CC(O)C4C3CC(O)C3(C)C4CC[C@@H]3C(C)CCC(=O)O)C2)cc1Cl (stereo partly drawn) [Example 28, 2-Methyl-3-acetyl-4-{4-[1-(3α,7α,12α-trihydroxy-10β,13β-dimethyl-17β-(3-carboxy-1-methylpropyl)hexadecahydrocyclopenta[a]phenanthren-3-yl)ethyn-2-yl]-2-chlorobenzylamino}quinoline] here?
Answer: 69%

Question: With CC(=O)c1c(C)nc2ccccc2c1NCc1ccc(CCC2(O)CCC3(C)C(CC(O)C4C3CC(O)C3(C)C4CC[C@@H]3C(C)CCC(=O)O)C2)cc1Cl (stereo partly drawn) [Example 29, 2-Methyl-3-acetyl-4-{4-[1-(3α,7α,12α-trihydroxy-10β,13β-dimethyl-17β(3-carboxy-1-methylpropyl)hexadecahydrocyclopenta[a]phenanthren-3-yl)eth-2-yl]-2-chlorobenzylamino}quinoline] as the compound, how does the remaining activity at 30 µM read?
Answer: 61%

Question: Which remaining activity at 30 µM does the source give for CC(=O)c1c(NCc2ccc(C#CC3(O)CC[C@@]4(C)C(CC(O)C5C4CC(O)[C@@]4(C)C5CC[C@@H]4[C@H](C)CCC(=O)O)C3)cc2)cc(C)nc1C (stereo partly drawn) [Example 30, 2,6-Dimethyl-3-acetyl-4-{4-[1-(3α,7α,12α-trihydroxy-10β,13β-dimethyl-17β-(3-carboxy-1-methylpropyl)hexadecahydrocyclopenta[a]phenanthren-3-yl)ethyn-2-yl]benzylamino}pyridine] here?
Answer: 48%

Question: With CC(=O)c1c(NCc2ccc(CCC3(O)CC[C@@]4(C)C(CC(O)C5C4CC(O)[C@@]4(C)C5CC[C@@H]4[C@H](C)CCC(=O)O)C3)cc2)cc(C)nc1C (stereo partly drawn) [Example 31, 2,6-Dimethyl-3-acetyl-4-{4-[1-(3α,7α,12α-trihydroxy-10β,13β-dimethyl-17β-(3-carboxy-1-methylpropyl)hexadecahydrocyclopenta[a]phenanthren-3-yl)eth-2-yl]benzylamino}pyridine] as the compound, how does the remaining activity at 30 µM read?
Answer: 69%

System: not given
Experiment: not given
Conditions: not given

Question: With COC(=O)c1c(C)nc2ccc(CCC3(O)CCC4(C)C(CC(O)C5C4CC(O)C4(C)C5CC[C@@H]4C(C)CCC(=O)O)C3)cc2c1NCc1ccccc1 (stereo partly drawn) as the compound, how does the melting point read?
Answer: > 185 °C (dec.)
